Measurements from patent US12053451B2, “Arginase inhibitors and their therapeutic applications” (OncoArendi Therapeutics S.A., priority 2016, dated 2024).
Where a name gives a salt, the structure may show the parent alone.

Assays:
[1] = molecular target: T1, recombinant human arginase 2 (Homo sapiens, UniProt P78540); assay: Human arginase activity assay (urea measurement), arginase 2; format: biochemical; settings: for selected examples class estimated from % of inhibition at 1 μM and 100 μM, * = most potent diastereoisomer or mixture of diastereoisomers, read-out: Activity Class (ARG II)
T1 construct: made in house; host or cells: CHO
T1 sequence (P78540 23-354): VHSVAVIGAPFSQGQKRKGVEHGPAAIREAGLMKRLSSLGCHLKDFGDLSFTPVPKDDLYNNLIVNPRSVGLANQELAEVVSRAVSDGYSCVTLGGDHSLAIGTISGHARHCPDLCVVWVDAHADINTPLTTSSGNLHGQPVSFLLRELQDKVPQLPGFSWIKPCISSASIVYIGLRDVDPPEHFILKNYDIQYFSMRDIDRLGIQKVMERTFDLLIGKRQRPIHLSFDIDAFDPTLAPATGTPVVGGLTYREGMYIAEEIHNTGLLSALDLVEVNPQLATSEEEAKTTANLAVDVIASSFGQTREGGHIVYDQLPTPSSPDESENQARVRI
Description: (§1) Human Arginase Activity Assay
An enzymatic assay with recombinant human arginases 1 (Biolegend, Cat. No. 552502) and 2 (homemade in eukaryotic expression system of CHO, purified by FPLC) was used in order to assess inhibitory activity of the compounds. The assay was run in the 96-well plate format, each reaction in the total volume of 100 uL. The assay is based on urea measurement, which is a product of L-arginine enzymatic degradation. (Baggio et al. J Pharmacol. Exp. Ther. 1999, 290, 1409-1416). The color product is developed by adding a mixture of reagent A (4 mM oPA in 50 mM boric acid in 1M sulfuric acid, 0.03% Brij-35) and reagent B (4 mM NED in 50 mM boric acid in 1M sulfuric acid, 0.03% Brij-35) in equal proportions. The absorbance for each well was measured at 530 nm.
(§2) Briefly, to each well of a 96-well microtiter plate 40 μL of enzyme in the reaction assay buffer (pH 7.4, 100 mM sodium phosphate buffer, 130 mM NaCl, 1 mg/mL albumin), 50 μL of the test compound solution and 10 μL of enzyme substrate solution (L-arginine hydrochloride, natural pH 5.6, final concentration 20 mM and a cofactor—manganese chloride, final concentration 150 μM) was added. For positive control, only the enzyme and substrate were used, the negative controls contained substrate solution with assay buffer. After incubating the microtiter plate at 37° C. for 60 min 150 μL of mixed reagents A and B was added to each well to stop the reaction. Absorbance was measured (λ=530 nm) 20 minutes later, after color development. The urea production in the absence of any compound was considered the maximum arginase activity. The absorbance in the absence of arginase (background) was subtracted from all the values. The normalized OD was used to generate a concentration-response curve by plotting the percent of inhibition against log[concentration] of the compound and using regression analysis (GraphPad Prism 7.0) to compute the IC50 values.
For selected examples the activity class for ARG2 was estimated based on % of inhibition for 1 μM and 100 μM concentration of tested compounds.

[2] = molecular target: T2, recombinant human arginase 1 (Homo sapiens, UniProt P05089); assay: Human arginase activity assay (urea measurement), arginase 1; format: biochemical; settings: recombinant human arginase 1, pH 7.4, 37° C., 60 min; * = value for the most potent diastereoisomer or the mixture of diastereoisomers; read-out: Activity Class (ARG I)
T2 construct: purchased Biolegend 552502
T2 sequence (P05089 1-322): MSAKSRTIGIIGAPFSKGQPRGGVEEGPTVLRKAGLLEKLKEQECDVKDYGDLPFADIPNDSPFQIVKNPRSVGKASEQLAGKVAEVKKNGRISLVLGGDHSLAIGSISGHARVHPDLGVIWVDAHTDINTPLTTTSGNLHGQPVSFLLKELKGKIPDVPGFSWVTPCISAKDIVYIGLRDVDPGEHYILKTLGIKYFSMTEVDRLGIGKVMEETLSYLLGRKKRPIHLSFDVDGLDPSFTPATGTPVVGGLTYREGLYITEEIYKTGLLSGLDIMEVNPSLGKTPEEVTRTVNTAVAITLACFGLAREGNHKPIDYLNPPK
Description: as §1
The assay was run in the 96-well plate format, each reaction in the total volume of 100 uL. The assay is based on urea measurement, which is a product of L-arginine enzymatic degradation. […] The color product is developed by adding a mixture of reagent A (4 mM oPA in 50 mM boric acid in 1M sulfuric acid, 0.03% Brij-35) and reagent B (4 mM NED in 50 mM boric acid in 1M sulfuric acid, 0.03% Brij-35) in equal proportions. The absorbance for each well was measured at 530 nm.
as §2, with “For” for “Briefly, to each well of a 96-well microtiter plate 40 μL of enzyme in the reaction assay buffer (pH 7.4, 100 mM sodium phosphate buffer, 130 mM NaCl, 1 mg/mL albumin), 50 μL of the test compound solution and 10 μL of enzyme substrate solution (L-arginine hydrochloride, natural pH 5.6, final concentration 20 mM and a cofactor—manganese chloride, final concentration 150 μM) was added. For”

Compound	IC50 [1]	IC50 [2]
CN1C[C@@H](CCB(O)O)C[C@](N)(C(=O)O)C1 (racemic) [Example 59, rac-(3R,5S)-3-amino-5-(2-boronoethyl)-1-methylpiperidine-3-carboxylic acid]	1 to 10 µM	1 to 10 µM
C[C@H]1[C@H](CCB(O)O)CCC1(N)C(=O)O (mixture of isomers) [Example 2, rac-(2S,3R)-1-amino-3-(2-boronoethyl)-2-methylcyclopentane-1-carboxylic acid]	> 100 µM	> 100 µM
CN(C[C@@H]1CC[C@@H](CCB(O)O)C[C@]1(N)C(=O)O)c1ccccc1 (racemic) [Example 40, rac-(1R,2S,5R)-1-amino-5-(2-boronoethyl)-2-((methyl(phenyl)amino)methyl)cyclohexanecarboxylic acid dihydrochloride]	1 to 10 µM	1 to 10 µM
NC1(C(=O)O)CC(CCB(O)O)CCC1CO (stereo not drawn) [Example 49, 1-amino-5-(2-boronoethyl)-2-(hydroxymethyl)cyclohexanecarboxylic acid hydrochloride]	–	1 to 10 µM
N[C@]1(C(=O)O)CCC[C@@H](CCB(O)O)C1 (racemic) [Example 11, rac-(1R,3R)-1-Amino-3-(2-boronoethyl)cyclohexane-1-carboxylic acid hydrochloride]	–	10 to 100 µM
NC[C@H]1C[C@@](N)(C(=O)O)C[C@@H]1CCB(O)O (racemic) [Example 7, rac-(1R,3S,4S)-1-Amino-3-(aminomethyl)-4-(2-boronoethyl)cyclopentane-1-carboxylic acid dihydrochloride]	–	1 to 10 µM
N[C@@]1(C(=O)O)COC[C@H](CCB(O)O)C1 (racemic) [Example 60, rac-(3R,5R)-3-amino-5-(2-boronoethyl)tetrahydro-2H-pyran-3-carboxylic acid hydrochloride]	–	10 to 100 µM
CN(C)C[C@@H]1CC[C@@H](CCB(O)O)C[C@]1(N)C(=O)O (racemic) [Example 17, rac-(1R,2S,5R)-1-Amino-5-(2-boronoethyl)-2-((dimethylamino)methyl)-cyclohexane-1-carboxylic acid dihydrochloride]	–	0.001 to 0.1 µM
N[C@@]1(C(=O)O)C[C@H](CCB(O)O)CC[C@H]1O (racemic) [Example 14, rac-(1S,2R,5R)-1-Amino-5-(2-boronoethyl)-2-hydroxycyclohexane-1-carboxylic acid hydrochloride]	–	10 to 100 µM
CC([C@@H]1CC[C@@H](CCB(O)O)C[C@]1(N)C(=O)O)N(C)C (stereo partly drawn) [Example 42, (1R,2S,5R)-1-amino-5-(2-boronoethyl)-2-(1-(dimethylamino)ethyl)cyclohexanecarboxylic acid dihydrochloride]	–	10 to 100 µM
N[C@]1(C(=O)O)C[C@H](CCB(O)O)CC[C@H]1CN1Cc2ccccc2C1 (racemic) [Example 29, rac-(1R,2S,5R)-1-amino-5-(2-boronoethyl)-2-(isoindolin-2-ylmethyl)cyclohexanecarboxylic acid dihydrochloride]	–	0.1 to 1 µM

The next lines start with the values.

IC50 [1]	IC50 [2]	Compound
–	0.001 to 0.1 µM	N[C@]1(C(=O)O)C[C@H](CCB(O)O)CC[C@H]1CN1CCCC1 [Example 23, (1R,2S,5R)-1-Amino-5-(2-boronoethyl)-2-(pyrrolidin-1-ylmethyl)-cyclohexane-1-carboxylic acid dihydrochloride]
–	0.1 to 1 µM	NCC1CC(CCB(O)O)CC1(N)C(=O)O (stereo not drawn) [Example 66, 1-amino-2-(aminomethyl)-4-(2-boronoethyl)cyclopentane-1-carboxylic acid dihydrochloride]
10 to 100 µM	10 to 100 µM	N[C@@]1(C(=O)O)C[C@H](CCB(O)O)[C@@H](O)C1 (racemic) [Example 4, rac-(1S,3S,4S)-1-Amino-3-(2-boronoethyl)-4-hydroxycyclopentane-1-carboxylic acid hydrochloride]
10 to 100 µM	0.1 to 1 µM	N[C@]1(C(=O)O)C[C@H](CCB(O)O)CC[C@H]1O (racemic) [Example 13, rac-(1R,2R,5R)-1-Amino-5-(2-boronoethyl)-2-hydroxycyclohexane-1-carboxylic acid hydrochloride]
1 to 10 µM	–	NC1(C(=O)O)CCC(CCB(O)O)C1 (racemic) [Example 1, 1-amino-3-(2-boronoethyl)cyclopentane-1-carboxylic acid]
–	1 to 10 µM	CN(C)C[C@@H]1C[C@@H](CCB(O)O)CC(N)(C(=O)O)C1 (mixture of isomers) [Example 55, rac-(3R,5R)-1-amino-3-(2-boronoethyl)-5-((dimethylamino)methyl)cyclohexanecarboxylic acid dihydrochloride]
–	10 to 100 µM	N[C@@]1(C(=O)O)CNC[C@H](CCB(O)O)C1 (racemic) [Example 58, rac-(3R,5R)-3-amino-5-(2-boronoethyl)piperidine-3-carboxylic acid]
–	10 to 100 µM	CN(C)CC1CC(CCB(O)O)CC1(N)C(=O)O (racemic) [Example 67, 1-amino-4-(2-boronoethyl)-2-((dimethylamino)methyl)cyclopentane-1-carboxylic acid]
–	1 to 10 µM	NC1(C(=O)O)CC(CCB(O)O)CCC1CN1CCOCC1 (stereo not drawn) [Example 20, 1-Amino-5-(2-boronoethyl)-2-(morpholinomethyl)cyclohexane-1-carboxylic acid dihydrochloride]
–	0.001 to 0.1 µM	NC1(C(=O)O)CC(CCB(O)O)CCC1CCN1CCCC1 (racemic) [Example 25, 1-Amino-5-(2-boronoethyl)-2-(2-(pyrrolidin-1-yl)ethyl)cyclohexane-1-carboxylic acid dihydrochloride]
–	10 to 100 µM	COC(=O)[C@@]1(N)C[C@H](CCB(O)O)CC[C@H]1CN(C)C [Example 43, (2-((1R,3R,4S)-3-amino-4-((dimethylamino)methyl)-3-(methoxycarbonyl)cyclohexyl)ethyl)boronic acid dihydrochloride]
–	10 to 100 µM	CN(C)C1CCC(CCB(O)O)CC1(N)C(=O)O (racemic) [Example 64, rac-(1R,5R)-1-amino-5-(2-boronoethyl)-2-(dimethylamino)cyclohexane-1-carboxylic acid dihydrochloride]
–	> 100 µM	NC1(C(=O)O)CC(CCB(O)O)N(Cc2ccccc2)C1 (stereo not drawn) [Example 8, 3-Amino-1-benzyl-5-(2-boronoethyl)pyrrolidine-3-carboxylic acid dihydrochloride]
–	0.1 to 1 µM	N[C@]1(C(=O)O)C[C@H](CCB(O)O)CC[C@H]1CN1CCC(c2ccc(Cl)cc2)CC1 (racemic) [Example 27, rac-(1R,2S,5R)-1-amino-5-(2-boronoethyl)-2-((4-(4-chlorophenyl)piperidin-1-yl)methyl)cyclohexanecarboxylic acid dihydrochloride]
